Values of other authors, collected in US20040033957A1, “FAP-activated anti-tumor prodrugs” (Boehringer Ingelheim Pharma GmbH & Co. KG, priority 2002, published 2004).
Where a SMILES comes first, the peptide text is derived from it. The star is where a group is joined. AFC = O=c1cc(C(F)(F)F)c2ccc(N*)cc2o1

Experiments:
[1] = system: xenograft tumor; conditions: mouse xenograft tumor models
[2] = directly in the circulation, humans
[3] = molecular target: T1, FAPα dimers (Homo sapiens, UniProt Q12884); conditions: membrane overlay assay
T1 sequence (Q12884 1-760): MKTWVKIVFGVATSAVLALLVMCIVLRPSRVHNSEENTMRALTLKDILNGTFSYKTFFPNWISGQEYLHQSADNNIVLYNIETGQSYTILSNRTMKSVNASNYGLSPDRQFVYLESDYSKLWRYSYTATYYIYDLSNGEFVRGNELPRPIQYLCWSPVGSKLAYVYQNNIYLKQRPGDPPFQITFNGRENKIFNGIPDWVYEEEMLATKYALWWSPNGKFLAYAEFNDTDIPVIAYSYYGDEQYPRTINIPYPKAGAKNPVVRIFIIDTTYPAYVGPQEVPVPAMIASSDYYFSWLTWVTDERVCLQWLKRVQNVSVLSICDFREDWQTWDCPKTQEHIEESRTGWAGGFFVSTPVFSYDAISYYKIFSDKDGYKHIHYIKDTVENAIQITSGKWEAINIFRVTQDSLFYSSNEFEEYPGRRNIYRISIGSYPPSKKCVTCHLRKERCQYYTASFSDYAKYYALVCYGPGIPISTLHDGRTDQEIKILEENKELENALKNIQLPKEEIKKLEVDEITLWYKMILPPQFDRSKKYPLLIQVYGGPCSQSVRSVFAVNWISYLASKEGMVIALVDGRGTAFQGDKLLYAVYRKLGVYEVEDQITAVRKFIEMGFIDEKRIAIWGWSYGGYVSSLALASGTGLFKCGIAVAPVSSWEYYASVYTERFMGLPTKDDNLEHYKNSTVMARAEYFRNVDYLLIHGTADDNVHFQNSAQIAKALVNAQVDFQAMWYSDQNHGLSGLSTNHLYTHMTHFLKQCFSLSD

SMILES | efficacy as compared to doxorubicin [1] | fraction of the prodrug metabolized to free doxorubicin [2] | tolerability (humans) | myelosuppression (patients, correlated with AUC of released doxorubicin) | cleavage by FAPα dimers [3]
COc1cccc2c1C(=O)c1c(O)c3c(c(O)c1C2=O)C[C@@](O)(C(=O)CO)C[C@@H]3O[C@H]1C[C@H](NC(=O)[C@@H](N)CC(C)C)[C@H](O)[C@H](C)O1 [N-L-leucyl-doxorubicin] | improved efficacy | roughly half | comparably poor tolerability | Myelosuppression was seen | 
NCC(=O)N1CCC[C@H]1C(=O)Nc1ccc2c(C(F)(F)F)cc(=O)oc2c1 [Gly-Pro-7-amino-4-trifluoromethyl coumarin] (H-Gly-Pro-{AFC}) |  |  |  |  | able to cleave
NCCCC[C@H](N)C(=O)N1CCC[C@H]1C(=O)Nc1ccc2c(C(F)(F)F)cc(=O)oc2c1 [Lys-Pro-7-amino-4-trifluoromethyl coumarin] (H-Lys-Pro-{AFC}) |  |  |  |  | able to cleave
C[C@H](N)C(=O)N1CCC[C@H]1C(=O)Nc1ccc2c(C(F)(F)F)cc(=O)oc2c1 [Ala-Pro-7-amino-4-trifluoromethyl coumarin] (H-Ala-Pro-{AFC}) |  |  |  |  | able to cleave
